According to patent publication US20090118258A1, “COMBINATION THERAPY COMPRISING ANGIOTENSIN CONVERTING ENZYME INHIBITORS AND VASOPRESSIN RECEPTOR ANTAGONISTS” (priority 2007, published 2009):

Columns and labels:
rat remnant kidney model [1] = experiment: Water intake and diuresis in remnant kidney model; format: in vivo; conditions: mean ± S.E.
Procedure: Treatments were started 21 days after RMR, when animals already had overt nephropathy. […] All compounds were administered in drinking water. An additional sham-operated untreated group was also included. Measurements were made at 21 d after RMR but before treatment, and at one and two months of treatment. […] Since the increased mortality was not dose dependent and was not apparent in the group receiving combination treatment with Compound 1 and enalapril (Table 1), the effect is likely due to chance and the known variability in the severity of renal failure in this model.
(§1) Water intake and diuresis was increased in all treatment groups following RMR (Table 2). […] There were no differences in serum electrolytes in any of the treatment groups at the termination of the experiment (Table 2).

rat remnant kidney model [2] = experiment: Blood pressure in rat remnant kidney model; format: in vivo; conditions: Compound 1 10 and 30 mg/kg/d; enalapril; combination enalapril + Compound 1 30 mg/kg/d; FIG. 3
Procedure: (§2) Treatments were started 21 days after RMR, when animals already had overt nephropathy. Treatment groups (n=8/group, except enalapril n=7) included vehicle; Compound 1 at 10 mg/kg/d; Compound 1 at 30 mg/kg/d; enalapril at 15 mg/mL (in drinking water); and enalapril at 15 mg/mL+Compound 1 at 30 mg/kg/d. All compounds were administered in drinking water. An additional sham-operated untreated group was also included. Measurements were made at 21 d after RMR but before treatment, and at one and two months of treatment. […] Since the increased mortality was not dose dependent and was not apparent in the group receiving combination treatment with Compound 1 and enalapril (Table 1), the effect is likely due to chance and the known variability in the severity of renal failure in this model.
Blood pressure reduction can contribute to slowing the progression of renal disease in this animal model as well as in humans.

[3] = test system: streptozotocin-induced diabetic rat; experiment: Streptozotocin-induced diabetic rat model of nephropathy; format: in vivo
Procedure: The streptozotocin-induced diabetic rat is a model of Type I diabetes that develops early renal dysfunction manifested as increased urine albumin excretion. One week after administration of streptozotocin, 65 mg/kg, i.p., rats were assigned to the following treatment groups: no treatment; Compound 1 at 30 mg/kg/d; or enalapril at 30 mg/kg/d. Both compounds were dosed in drinking water for 12 weeks. Mortality among the treatment groups at 12 weeks was 1/10 in the untreated and Compound 1-treated groups and 3/10 in the enalapril-treated group. As a result of the diabetic state, urine volumes were nearly 10 times that of non-diabetic rats. […] The fraction of filtered sodium and potassium excreted was unaffected by either Compound 1 and enalapril.

Type I diabetic rats = experiment: Arterial pressure and heart rate in Type I diabetic rats after seven days oral administration; format: in vivo, rat; conditions: oral administration for seven days
Procedure: Oral administration of Compound 1 for seven days in Type I diabetic rats had no effect on mean arterial pressure or heart rate over 48 h in diabetic rats. […] Oral administration of enalapril for seven days had no effect on arterial pressure over 48 h in diabetic rat

rat remnant kidney model [4] = experiment: Serum and urine electrolytes in remnant kidney model; format: in vivo
Procedure: as §2, §1
Urinary Na excretion was reduced in the vehicle treated RMR rats. […] Urinary K and Cl excretion were reduced in rats with RMR compared to control rats.

rat remnant kidney model [5] = experiment: Rat remnant kidney model of nephropathy (renal mass reduction, RMR); format: in vivo; conditions: for Mortality rate: enalapril in drinking water, dead/total
From the text: The rat remnant kidney model is an animal model of severe progressive renal failure. In this model, a state of severe progressive renal failure is produced by renal mass reduction (RMR) through removal of one kidney and ligation of several branches of the renal artery, resulting in infarction and loss of function of two thirds of the remaining kidney. The procedure creates the conditions of severe hypertension, proteinuria, progressive renal function deterioration, tubulointerstitial damage and glomerulosclerosis (Olson J L, Hostetter T H, Rennke H G, Brenner B M, Venkatachalam M A: “Altered glomerular permselectivity and progressive sclerosis following extreme ablation of renal mass”. Kidney Int 22:112-126, 1982).
Nephropathy is evident as a progressively increasing amount of protein in urine, increases in serum creatinine and increases in arterial pressure. In addition, severe sclerosis of the glomeruli, inflammatory cell infiltration and tubular damage are measurable through histological analysis within 3 months of renal mass reduction (RMR). These measures form the basis for determining efficacy in the model. Urine protein, serum creatinine and arterial pressure are similarly measured in humans to determine impact of treatments on disease progression.
The aim of this study was to evaluate the effects of Compound 1 compared to an ACE inhibitor (enalapril), as well as the combination treatment with Compound 1 and enalapril, on proteinuria and renal disease progression in this model. The effectiveness of these agents has been associated with reductions in proteinuria, slowing of the rate of rise in serum creatinine and reduction in glomerular sclerosis and thus slowing of the progression to end stage renal failure.
as §2

db/db mice = format: in vivo
Procedure: Male db/db mice, a genetic model of type 2 diabetes, develop early renal dysfunction manifested as increased urine albumin excretion. At 9 weeks of age diabetes was confirmed by measurement of blood glucose (>300 mg/dL) and animals assigned to one of three treatment groups (n=12/group): untreated, Compound 1, 30 mg/kg/d and enalapril, 30 mg/kg/d. Compounds were dosed in drinking water for 16 weeks. There was no mortality in any of the treatment groups. Body weights for animals were similar at the beginning of the study.

[6] = 1 month of treatment, Enalapril 15 mg/L
[7] = 2 month of treatment, Enalapril 15 mg/L
[8] = basal (before RMR and treatment), group Enalapril 15 mg/L
[9] = pre-treatment (21 d after RMR), group Enalapril 15 mg/L
[10] = 30 mg/kg/d in drinking water for 12 weeks
[11] = both doses of Compound 1, enalapril alone, combination, reduced in RMR rats vs control
[12] = 1 and 2 months of treatment, Compound 1 10 and 30 mg/kg/d, enalapril 15 mg/mL, combination enalapril + Compound 1 30 mg/kg/d, FIG. 1

Structure (SMILES): CCOC(=O)[C@H](CCc1ccccc1)N[C@@H](C)C(=O)N1CCC[C@H]1C(=O)O [Enalapril, enalapril, reference compound]
- diuresis (rat remnant kidney model [1]; [6]): 46 ± 4 mL/24 h
- water intake (rat remnant kidney model [1]; [6]): 60 ± 4*° mL/24 h
- diuresis (rat remnant kidney model [1]; [7]): 45 ± 3 mL/24 h
- water intake (rat remnant kidney model [1]; [7]): 59 ± 6 mL/24 h
- diuresis (rat remnant kidney model [1]; [8]): 19 ± 1 mL/24 h
- water intake (rat remnant kidney model [1]; [8]): 44 ± 4 mL/24 h
- diuresis (rat remnant kidney model [1]; [9]): 46 ± 5 mL/24 h
- water intake (rat remnant kidney model [1]; [9]): 66 ± 6 mL/24 h
- arterial pressure (rat remnant kidney model [2]): significant reductions in arterial pressure compared to vehicle
- fraction of filtered sodium and potassium excreted [3, 10]: unaffected
- urine endpoints: daily volume output, osmolarity, chloride, creatinine, sodium or potassium concentrations, clearances or excretion values [3, 10]: not significantly altered
- Mortality at 12 weeks ([3]; 30 mg/kg/d in drinking water for 12 weeks, dead/total, untreated 1/10): 3/10
- serum albumin concentrations ([3]; 30 mg/kg/d, compared to vehicle treated controls): not statistically significant, serum albumin concentrations increased
- kidney weight or renal glomerular or mesangial morphology ([3]; 30 mg/kg/d, compared to vehicle treated diabetic rats): no significant effects
- (mean) arterial pressure over 48 h (Type I diabetic rats): no effect
- urinary Na excretion (rat remnant kidney model [4]; both doses of Compound 1 (10, 30 mg/kg/d), enalapril alone, combination, reduced in vehicle treated RMR rats): tended to normalize urinary Na excretion to similar extents
- urinary Cl excretion (rat remnant kidney model [4]; [11]): tended to normalize urinary K and Cl excretion
- urinary K excretion (rat remnant kidney model [4]; [11]): tended to normalize urinary K and Cl excretion
- urine chloride ion (Cl−) (rat remnant kidney model [4]; compared to vehicle group): significantly greater than those in the vehicle group
- serum creatinine (rat remnant kidney model [5]; [12]): significantly reduced
- urine protein (rat remnant kidney model [5]; [12]): significantly reduced
- Mortality rate (rat remnant kidney model [5]; 1 month of treatment): 0/7
- Mortality rate (rat remnant kidney model [5]; 2 month of treatment): 1/7
- number of ED 1 positive cells per field (monocytes/macrophages in renal interstitium) (rat remnant kidney model [5]; enalapril 15 mg/mL, termination, vehicle 63±4, statistically significant reduction): 38±6 positive cells per field
- percentage of sclerotic glomeruli (rat remnant kidney model [5]; renal histology at termination, Compound 1 10 or 30 mg/kg/d, enalapril, combination enalapril + Compound 1 30 mg/kg/d, FIG. 2): significant reduction
- urinary albumin excretion (in words) (db/db mice; 30 mg/kg/d in drinking water for 16 weeks, FIG. 5): tended to reduce urine albumin excretion with significant differences observed at 2 weeks and 16 weeks compared to vehicle controls
- mesangial surface area or percentage of glomerular area occupied by mesangium (db/db mice; 30 mg/kg/d, compared to vehicle-treated animals): No significant differences
- urine osmolarity (db/db mice; 30 mg/kg/d, throughout 16 weeks of dosing): unaffected by treatment
- albumin excretion in urine (db/db mice; enalapril 30 mg/kg/d in drinking water, over 16 weeks, FIG. 5): ≤ 500 ug/24 h
